According to US12258328B2, “6-membered heteroaryl-containing aminopyridine compounds as EGFR inhibitors” (YUHAN CORPORATION, priority 2021, dated 2025):
Like-named read-outs stand apart in the source and are kept apart here.

Tests used:
EGFR del19/T790M/C797S = EGFR del19/T790M/C797S (Homo sapiens, UniProt P00533, C797S/DEL746-750/T790M); assay: Biochemical EGFR kinase assay (Lance Ultra TR-FRET), triple mutant del19/T790M/C797S
Method: (§1) Biochemical EGFR kinase assays were conducted using Lance Ultra time-resolved fluorescence resonance energy transfer (TR-FRET) technology from Perkin-Elmer. Compounds of the invention were initially diluted to 20 mM in 100% DMSO for storage and made into kinase buffer solution to create a compound concentration ranging from 0.003 μM and 10 μM.
(§2) Each kinase reactions were incubated at room temperature for 1 hour and then stopped by the addition of 4 μL of stop solution (10 mM EDTA). The specific Europium-labeled-anti-phosphopeptide antibody (PerkinElmer, AD0069) diluted in LANCE detection buffer was then added to a final concentration of 2 nM. After 60 minutes incubation at room temperature the LANCE signal was measured on an EnVision Multilabel Reader (Perkin-Elmer). Excitation wavelength was set at 320 nm and emission monitored at 615 nm (donor) and 665 nm (acceptor). The IC50 values were determined using GraphPad prism software (GraphPad Software, Inc., San Diego, CA, USA).

EGFR wildtype = EGFR wildtype (Homo sapiens, UniProt P00533); assay: Biochemical EGFR kinase assay (Lance Ultra TR-FRET), wildtype
Method: as §1, §2

EGFR L858R/T790M/C797S = EGFR L858R/T790M/C797S (Homo sapiens, UniProt P00533, C797S/L858R/T790M); assay: Biochemical EGFR kinase assay (Lance Ultra TR-FRET), triple mutant L858R/T790M/C797S
Method: as §1, §2

EGFR del19/C797S = EGFR del19/C797S (Homo sapiens, UniProt P00533, C797S/DEL746-750); assay: Biochemical EGFR kinase assay (Lance Ultra TR-FRET), double mutant del19/C797S
Method: as §1, §2

EGFR L858R/C797S = EGFR L858R/C797S (Homo sapiens, UniProt P00533, C797S/L858R); assay: Biochemical EGFR kinase assay (Lance Ultra TR-FRET), double mutant L858R/C797S
Method: as §1, §2

[1] = ATP at Km, read-out: IC50 del19/T790M/C797S, Km ATP
[2] = ATP at Km, read-out: IC50 WT, Km ATP
[3] = ATP at Km, read-out: IC50 L858R/T790M/C797S, Km ATP
[4] = ATP at Km, read-out: IC50 del19/C797S, Km ATP
[5] = ATP at Km, read-out: IC50 L858R/C797S, Km ATP
[6] = Km ATP, read-out: IC50 del19/T790M/C797S (nM) Km ATP
[7] = Km ATP, read-out: IC50 WT (nM) Km ATP
[8] = Km ATP, read-out: IC50 L858R/C797S (nM) Km ATP
[9] = Km ATP, read-out: IC50 L858R/T790M/C797S (nM) Km ATP
[10] = Km ATP, read-out: IC50 del19/C797S (nM) Km ATP

Chain of EGFR del19/T790M/C797S (P00533 with tags, fused parts or gaps DEL746-750/T790M/C797S): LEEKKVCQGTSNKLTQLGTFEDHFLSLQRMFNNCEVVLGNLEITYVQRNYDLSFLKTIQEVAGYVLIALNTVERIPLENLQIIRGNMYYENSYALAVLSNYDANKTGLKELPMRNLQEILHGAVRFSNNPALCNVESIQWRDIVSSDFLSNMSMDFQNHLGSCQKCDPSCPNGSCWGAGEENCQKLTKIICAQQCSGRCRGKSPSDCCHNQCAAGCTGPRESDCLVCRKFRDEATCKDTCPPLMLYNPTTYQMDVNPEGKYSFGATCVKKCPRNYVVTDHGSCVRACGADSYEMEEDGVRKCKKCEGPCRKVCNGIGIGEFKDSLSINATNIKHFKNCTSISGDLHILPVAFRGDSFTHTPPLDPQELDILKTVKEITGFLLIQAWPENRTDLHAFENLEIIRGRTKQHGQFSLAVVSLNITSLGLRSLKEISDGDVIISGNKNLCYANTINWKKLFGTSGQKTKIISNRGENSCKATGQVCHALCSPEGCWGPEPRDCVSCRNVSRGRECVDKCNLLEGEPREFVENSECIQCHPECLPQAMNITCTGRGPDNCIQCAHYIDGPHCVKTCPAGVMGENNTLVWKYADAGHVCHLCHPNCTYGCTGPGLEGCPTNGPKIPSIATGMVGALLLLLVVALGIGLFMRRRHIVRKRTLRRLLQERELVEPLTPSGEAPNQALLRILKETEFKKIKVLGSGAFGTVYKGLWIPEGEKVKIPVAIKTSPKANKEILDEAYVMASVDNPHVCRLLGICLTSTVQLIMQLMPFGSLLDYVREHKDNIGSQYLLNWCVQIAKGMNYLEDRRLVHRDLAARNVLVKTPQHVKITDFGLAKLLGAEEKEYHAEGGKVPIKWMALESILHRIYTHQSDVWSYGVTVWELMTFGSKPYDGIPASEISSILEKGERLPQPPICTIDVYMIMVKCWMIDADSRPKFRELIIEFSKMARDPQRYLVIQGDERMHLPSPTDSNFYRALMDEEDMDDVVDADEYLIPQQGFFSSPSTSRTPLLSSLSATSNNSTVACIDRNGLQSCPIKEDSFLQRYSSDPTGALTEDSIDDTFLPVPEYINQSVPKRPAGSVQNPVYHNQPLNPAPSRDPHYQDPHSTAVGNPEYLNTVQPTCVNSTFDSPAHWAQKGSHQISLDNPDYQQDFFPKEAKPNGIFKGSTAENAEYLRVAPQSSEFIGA
Chain of EGFR L858R/T790M/C797S (P00533 25-1210 T790M/C797S/L858R): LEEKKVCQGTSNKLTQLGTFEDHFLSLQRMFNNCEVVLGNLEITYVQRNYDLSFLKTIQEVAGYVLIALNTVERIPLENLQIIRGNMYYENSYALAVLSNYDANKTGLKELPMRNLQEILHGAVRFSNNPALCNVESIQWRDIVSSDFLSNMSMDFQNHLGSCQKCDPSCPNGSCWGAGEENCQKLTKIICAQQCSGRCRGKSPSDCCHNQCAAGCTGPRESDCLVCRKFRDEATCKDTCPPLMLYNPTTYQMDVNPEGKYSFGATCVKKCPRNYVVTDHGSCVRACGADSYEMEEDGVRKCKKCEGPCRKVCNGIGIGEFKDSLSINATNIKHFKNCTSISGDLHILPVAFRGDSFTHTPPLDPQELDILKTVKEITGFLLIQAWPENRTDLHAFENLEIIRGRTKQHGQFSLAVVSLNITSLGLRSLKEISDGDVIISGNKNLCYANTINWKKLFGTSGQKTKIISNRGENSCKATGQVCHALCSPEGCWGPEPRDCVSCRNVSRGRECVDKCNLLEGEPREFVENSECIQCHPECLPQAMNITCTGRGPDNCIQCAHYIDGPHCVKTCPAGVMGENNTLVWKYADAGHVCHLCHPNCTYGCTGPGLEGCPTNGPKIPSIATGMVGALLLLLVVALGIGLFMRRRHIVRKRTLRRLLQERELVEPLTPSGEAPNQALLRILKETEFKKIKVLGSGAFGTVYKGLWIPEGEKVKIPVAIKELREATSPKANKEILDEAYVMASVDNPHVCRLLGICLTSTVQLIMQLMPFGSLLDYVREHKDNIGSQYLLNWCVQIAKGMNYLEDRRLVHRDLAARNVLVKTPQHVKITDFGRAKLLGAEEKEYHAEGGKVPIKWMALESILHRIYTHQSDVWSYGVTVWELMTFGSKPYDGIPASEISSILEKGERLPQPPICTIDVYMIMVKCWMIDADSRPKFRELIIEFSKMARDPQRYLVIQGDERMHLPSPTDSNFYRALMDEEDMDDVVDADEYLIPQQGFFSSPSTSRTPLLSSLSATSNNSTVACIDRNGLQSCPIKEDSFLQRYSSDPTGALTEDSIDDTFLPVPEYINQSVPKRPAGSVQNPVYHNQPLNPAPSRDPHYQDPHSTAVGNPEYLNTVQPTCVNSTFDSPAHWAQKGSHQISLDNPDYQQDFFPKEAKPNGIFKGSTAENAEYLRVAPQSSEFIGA
Chain of EGFR del19/C797S (P00533 with tags, fused parts or gaps DEL746-750/C797S): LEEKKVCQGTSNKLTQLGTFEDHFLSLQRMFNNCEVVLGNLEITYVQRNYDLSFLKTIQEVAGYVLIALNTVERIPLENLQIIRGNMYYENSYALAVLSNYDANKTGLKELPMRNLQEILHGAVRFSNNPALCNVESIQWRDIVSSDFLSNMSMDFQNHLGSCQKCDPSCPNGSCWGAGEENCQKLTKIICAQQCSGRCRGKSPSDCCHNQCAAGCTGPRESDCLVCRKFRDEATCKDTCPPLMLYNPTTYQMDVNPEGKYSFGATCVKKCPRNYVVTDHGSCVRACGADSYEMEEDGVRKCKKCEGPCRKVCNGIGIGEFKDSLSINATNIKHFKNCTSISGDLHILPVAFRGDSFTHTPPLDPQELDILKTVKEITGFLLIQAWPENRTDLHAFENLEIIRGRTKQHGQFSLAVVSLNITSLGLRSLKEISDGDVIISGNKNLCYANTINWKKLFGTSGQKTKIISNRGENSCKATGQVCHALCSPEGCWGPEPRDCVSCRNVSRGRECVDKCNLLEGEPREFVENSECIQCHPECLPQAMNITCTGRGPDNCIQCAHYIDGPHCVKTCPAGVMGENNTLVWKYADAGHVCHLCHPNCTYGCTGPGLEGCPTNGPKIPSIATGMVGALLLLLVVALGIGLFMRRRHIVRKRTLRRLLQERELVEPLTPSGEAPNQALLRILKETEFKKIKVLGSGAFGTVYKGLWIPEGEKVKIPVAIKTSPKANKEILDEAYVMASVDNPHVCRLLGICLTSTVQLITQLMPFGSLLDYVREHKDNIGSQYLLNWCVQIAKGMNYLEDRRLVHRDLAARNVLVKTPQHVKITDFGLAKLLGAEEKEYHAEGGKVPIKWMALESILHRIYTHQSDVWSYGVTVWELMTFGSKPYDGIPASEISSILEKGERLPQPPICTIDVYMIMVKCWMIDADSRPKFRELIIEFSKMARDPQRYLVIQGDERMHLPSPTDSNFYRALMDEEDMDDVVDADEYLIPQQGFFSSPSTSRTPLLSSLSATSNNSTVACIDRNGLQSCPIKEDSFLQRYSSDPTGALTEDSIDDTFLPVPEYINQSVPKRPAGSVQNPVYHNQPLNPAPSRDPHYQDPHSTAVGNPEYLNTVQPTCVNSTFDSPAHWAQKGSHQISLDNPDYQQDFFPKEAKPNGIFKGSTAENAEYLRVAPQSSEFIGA
Chain of EGFR L858R/C797S (P00533 25-1210 C797S/L858R): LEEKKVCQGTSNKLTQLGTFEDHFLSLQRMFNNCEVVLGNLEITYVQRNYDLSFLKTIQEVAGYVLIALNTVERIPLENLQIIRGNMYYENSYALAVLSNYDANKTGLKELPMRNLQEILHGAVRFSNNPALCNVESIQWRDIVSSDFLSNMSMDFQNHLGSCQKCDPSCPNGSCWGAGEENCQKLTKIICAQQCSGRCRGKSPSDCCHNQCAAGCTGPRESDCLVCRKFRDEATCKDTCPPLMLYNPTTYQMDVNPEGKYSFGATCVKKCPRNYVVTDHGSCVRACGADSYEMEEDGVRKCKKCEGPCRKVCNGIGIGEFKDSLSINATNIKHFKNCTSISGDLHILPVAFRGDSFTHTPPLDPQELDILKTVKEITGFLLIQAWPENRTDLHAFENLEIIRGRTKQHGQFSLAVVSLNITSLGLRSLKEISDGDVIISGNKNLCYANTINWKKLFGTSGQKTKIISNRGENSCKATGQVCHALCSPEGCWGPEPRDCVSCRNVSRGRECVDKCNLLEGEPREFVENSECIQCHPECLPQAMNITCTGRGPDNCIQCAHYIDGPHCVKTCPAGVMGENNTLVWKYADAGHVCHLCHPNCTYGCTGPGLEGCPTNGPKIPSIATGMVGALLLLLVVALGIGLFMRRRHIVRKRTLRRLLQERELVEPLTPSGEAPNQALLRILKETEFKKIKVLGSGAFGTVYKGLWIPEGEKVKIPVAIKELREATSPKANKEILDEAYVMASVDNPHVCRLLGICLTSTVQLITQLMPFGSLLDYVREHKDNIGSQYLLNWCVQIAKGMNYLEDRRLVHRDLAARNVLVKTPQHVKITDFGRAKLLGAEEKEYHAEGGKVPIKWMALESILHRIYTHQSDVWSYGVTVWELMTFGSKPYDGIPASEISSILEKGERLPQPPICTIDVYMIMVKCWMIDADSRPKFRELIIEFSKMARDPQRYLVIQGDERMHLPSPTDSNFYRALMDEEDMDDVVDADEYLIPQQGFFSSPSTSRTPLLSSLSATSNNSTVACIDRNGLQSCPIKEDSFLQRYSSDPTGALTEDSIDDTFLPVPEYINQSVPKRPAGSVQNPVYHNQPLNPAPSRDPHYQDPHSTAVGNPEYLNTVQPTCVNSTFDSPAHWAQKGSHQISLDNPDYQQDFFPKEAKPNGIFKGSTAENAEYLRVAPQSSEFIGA

Structure (SMILES) | IC50 (EGFR del19/T790M/C797S; [1]) [nM] | IC50 (EGFR wildtype; [2]) [nM] | IC50 (EGFR L858R/T790M/C797S; [3]) [nM] | IC50 (EGFR del19/C797S; [4]) [nM] | IC50 (EGFR L858R/C797S; [5]) [nM] | IC50 (EGFR L858R/C797S; [8]) [nM] | IC50 (EGFR L858R/T790M/C797S; [9]) [nM] | also measured
CC(C)(O)c1ccc(-c2cnc(Nc3ccnc(-c4cnn(S(=O)(=O)C5CC5)c4)n3)cc2NC2CCN(CCF)CC2)nc1 [Example 176, 2-(6′-((2-(1-(Cyclopropylsulfonyl)-1H-pyrazol-4-yl)pyrimidin-4-yl)amino)-4′-((1-(2-fluoroethyl)piperidin-4-yl)amino)-[2,3′-bipyridin]-5-yl)propan-2-ol] | 0.2 | 43.4 | 0.4 | 5.5 |  |  |  | 
CC(C)Nc1cc(Nc2ccnc(-c3cnn(S(=O)(=O)C4CC4)c3)n2)ncc1-c1ccc(C(C)(O)C(F)(F)F)cn1 (stereo not drawn) [Example 295, 2-(6′-((2-(1-(Cyclopropylsulfonyl)-1H-pyrazol-4-yl)pyrimidin-4-yl)amino)-4′-(isopropylamino)-[2,3′-bipyridin]-5-yl)-1,1,1-trifluoropropan-2-ol] | 10.4 | 44.7 |  | 49.2 | 26.5 |  |  | 
COc1ccc(-c2cnc(Nc3ccnc(-c4cnn(S(=O)(=O)C5CC5)c4)n3)cc2N[C@H]2CC[C@@](C)(O)CC2)nn1 [Example 53, (1s,4s)-4-((2-((2-(1-(Cyclopropylsulfonyl)-1H-pyrazol-4-yl)pyrimidin-4-yl)amino)-5-(6-methoxypyridazin-3-yl)pyridin-4-yl)amino)-1-methylcyclohexan-1-ol] |  |  |  |  |  | 1 | 0.1 | IC50 (EGFR del19/T790M/C797S; IC50 del19/T790M/C797S (nM) 100 μM ATP, 100 μM ATP): 0.4 nM; IC50 (EGFR del19/T790M/C797S; [6]): 0.4 nM; IC50 (EGFR wildtype; IC50 WT (nM) 100 μM ATP, 100 μM ATP): > 10000 nM; IC50 (EGFR wildtype; [7]): 6.9 nM; IC50 (EGFR L858R/C797S; IC50 L858R/C797S (nM) 100 μM ATP, 100 μM ATP): 1 nM; IC50 (EGFR L858R/T790M/C797S; IC50 L858R/T790M/C797S (nM) 100 μM ATP, 100 μM ATP): 0.5 nM
CN1CCC(Oc2cnc(-c3cnc(Nc4ccnc(-c5cnn(S(=O)(=O)C6CC6)c5)n4)cc3N[C@H]3CC[C@@](C)(O)CC3)cn2)CC1 [Example 145, (1s,4s)-4-((2-((2-(1-(Cyclopropylsulfonyl)-1H-pyrazol-4-yl)pyrimidin-4-yl)amino)-5-(5-((1-methylpiperidin-4-yl)oxy)pyrazin-2-yl)pyridin-4-yl)amino)-1-methylcyclohexan-1-ol] |  |  |  |  |  | 0.1 | 0.03 | IC50 (EGFR del19/T790M/C797S; [6]): 0.1 nM; IC50 (EGFR del19/C797S; [10]): 0.3 nM
C[C@]1(O)CC[C@@H](Nc2cc(Nc3ccnc(-c4cnn(S(=O)(=O)C5CC5)c4)n3)ncc2-c2cnc(OC(F)F)cn2)CC1 [Example 128, (1s,4s)-4-((2-((2-(1-(Cyclopropylsulfonyl)-1H-pyrazol-4-yl)pyrimidin-4-yl)amino)-5-(5-(difluoromethoxy)pyrazin-2-yl)pyridin-4-yl)amino)-1-methylcyclohexan-1-ol] |  |  |  |  |  | 95.8 | 0.5 | IC50 (EGFR wildtype; [7]): > 10000 nM; IC50 (EGFR del19/C797S; [10]): 41.2 nM
CC(C)(O)[C@H]1CC[C@@H](Nc2cc(Nc3ccnc(-c4cnn(S(=O)(=O)C5CC5)c4)n3)ncc2-c2ccc(OCCO)cn2)CC1 [Example 207, 2-((1s,4s)-4-((6′-((2-(1-(Cyclopropylsulfonyl)-1H-pyrazol-4-yl)pyrimidin-4-yl)amino)-5-(2-hydroxyethoxy)-[2,3′-bipyridin]-4′-yl)amino)cyclohexyl)propan-2-ol] | 1.3 | 3.8 | 0.3 |  | 1 |  |  | IC50 (EGFR del19/T790M/C797S; IC50 del19/T790M/C797S, 100 μM ATP): 1.6 nM; IC50 (EGFR wildtype; IC50 WT, 100 μM ATP): 1790 nM; IC50 (EGFR L858R/C797S; IC50 L858R/C797S, 100 μM ATP): 14 nM; IC50 (EGFR L858R/T790M/C797S; IC50 L858R/T790M/C797S, 100 μM ATP): 0.8 nM
CN1CCC(Oc2ccc(-c3cnc(Nc4nc(-c5cnn(S(=O)(=O)C6CC6)c5)ncc4F)cc3N[C@H]3CC[C@@](C)(O)CC3)nc2)CC1 [Example 300, (1s,4s)-4-((6′-((2-(1-(Cyclopropylsulfonyl)-1H-pyrazol-4-yl)-5-fluoropyrimidin-4-yl)amino)-5-((1-methylpiperidin-4-yl)oxy)-[2,3′-bipyridin]-4′-yl)amino)-1-methylcyclohexan-1-ol] | 0.3 |  | 0.1 | 0.4 | 0.2 |  |  | 
